Test results published in patent US7566808B2, “Management of ophthalmologic disorders, including macular degeneration” (President and Fellows of Harvard College, priority 2004, dated 2009).

Assays:
Sprague Dawley rats = details: reference [24]; cited from earlier work
[1] = tested on: bovine retinal pigment epithelial membrane system (11-cis-retinol formation); experiment: 11-cis-retinol formation in RPE membranes (IMH activity / RPE65 function); type: biochemical; details: 60 μM, data not shown
Method: A control reaction mixture without any inhibitor was also incubated at room temperature for 15 min. At the end of the 15 min incubation, all-trans-retinol [11-12-^3H2] (0.2 μM) was added to the reaction mixtures (100 mM Tris pH 8.0, […] of RPE protein, 0.2% BSA 100 μM of DPPC, 1 mM of DTT and 0.2 μM all-trans-retinol [11-12-^3H2]) and incubated at room temperature for 30 min. At the end of this 30 minutes of incubation, an aliquot of the reactions were quenched to verify the equal addition of all-trans-retinol [11,12-^3H2] and the effect of these inhibitors on LRAT. After this the control reaction mixture was incubated with atRA (60 & 6 μM), 13cRA (60 & 6 μM) or 4-HPR (60 & 6 μM) for 15 min. Now all the reaction mixtures were incubated with 30 μM of apo-rCRALBP (100 mM Tris pH 8.0, 7.7 μg of RPE protein, 0.2% BSA 100 μm of DPPC, 1 mM of DTT 30 μM apo-rCRALBP and 0.2 μM all-trans-retinol [11-12-^3H2]) at 37° C. for 30 minutes. At the end of this incubation period the 200 μL reaction mixture was quenched by the addition of 750 μL ice cold methanol after which 100 μL of 1M sodium chloride solution was added, and 500 μl hexane (containing butylated hydroxy toluene at 1 mg/mL) was added to effect extraction of the retinoids. The retinoids were analyzed as previously described (27). The amount of 11-cis-retinol formed was used as a measurement of IMH activity. All experiments were performed in triplicate and the average values of these measurements were used for analysis.
A control reaction mixture without any inhibitor was also incubated at room temperature for 15 min. At the end of the 15 min incubation, all-trans-retinol [11-12-^3H2] (0.2 μM) was added to the reaction mixtures (100 mM Tris pH 8.0, 76.7 μg of RPE protein, 0.2% BSA 100 μM of DPPC, 1 mM of DTT and 0.2 μM all-trans-retinol [11-12-^3H2]) and incubated at room temperature for 30 min. […] The retinoids were analyzed as previously described (27). […]

Question: With `CC1=C(/C=C/C(C)=C/C=C/C(C)=C\C(=O)O)C(C)(C)CCC1` [13-cis-retinoic acid, reference compound] as the compound, how does the “inhibition of 11-cis-retinal regeneration after bleaching (literature)” value (Sprague Dawley rats) read?
Answer: approximately 4 fold

Question: And the “inhibition of 11-cis-retinol formation, membranes pre-incubated with vitamin A before inhibitor” value [1]?
Answer: not susceptible to inhibition
